Drawing on patent US5247084A, “Derivatives of p-guanidinobenzoic acid” (priority 1985, dated 1993), this text covers IC50 and inhibition for 69 compounds.

For this assay, the target named is T1, elastase from human neutrophil (Homo sapiens, UniProt P08246).
T1 construct: using elastase from human neutrophil; from tissue; host or cells: human neutrophil
T1 sequence (P08246 30-247 limits assumed): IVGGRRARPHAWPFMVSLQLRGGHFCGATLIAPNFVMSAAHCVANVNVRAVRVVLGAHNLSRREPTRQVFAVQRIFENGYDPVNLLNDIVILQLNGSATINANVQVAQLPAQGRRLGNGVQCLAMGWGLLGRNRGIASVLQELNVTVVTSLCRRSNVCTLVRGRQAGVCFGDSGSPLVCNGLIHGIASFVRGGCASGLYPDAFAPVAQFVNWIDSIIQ
The assay is described as follows: Inhibitory effect on elastase (spectrophotometric method, substrate Suc-Ala-Pro-Ala-pNA). Type of assay: biochemical. Conditions: Y represents an oxygen atom; for IC50: pH 8.0, 37° C., 30 minutes, read-out: Inhibitory Effect on Elastase, IC50.

Molecules are shown by their SMILES.

The term IC50 denotes the concentration needed to halve the response being measured. The term inhibition denotes the relative decrease from the control value, in per cent.

Method: The test was carried out by the slight modification of the method of Bieth et al [see Biochem. Med., 75, 350 (1974)] using elastase from human neutrophil.
The reaction mixture consisted of 1 mM Suc-Ala-Pro-Ala-pNA (dissolving in N-methylpyrrolidone to the concentration of 100 mM, and then adding 1/100 amount of the solution to the reaction mixture.), 0.1 M buffer solution of tris-hydrochloric acid (pH 8.0), 0.2 M sodium chloride aqueous solution, the sample solution of various concentrations and enzyme solution in a final volume of 1.0 ml was incubated at 37° C. for 30 minutes.
The reaction was stopped by the addition of 100 μl of 50% acetic acid into the reaction mixture, and then p-nitro anilide released was measured on absorbance of 405 nm.
Inhibition percentage of the test compounds was caliculated by the following equation: [formula]

On to `N=C(N)Nc1ccc(C(=O)Oc2cc(Cl)cc(Cl)c2)cc1` [Example 1, p-guanidinobenzoic acid 3,5-dichlorophenyl ester methanesulfonate], for which the IC50 came out at 0.4 µM and the inhibition at 100 µM is 97%.
`Cc1ccccc1OC(=O)c1ccc(NC(=N)N)cc1` [Example 2]: the inhibition at 100 µM came to 20.2%.
Still for that read-out and setting: the same measure for `Cc1cccc(OC(=O)c2ccc(NC(=N)N)cc2)c1` [Example 3]: 45.6%; for `Cc1ccc(OC(=O)c2ccc(NC(=N)N)cc2)cc1` [Example 4-methyl, reference compound]: 28.4%.
On the same count and under the same terms, the same measure for `Cc1cccc(OC(=O)c2ccc(NC(=N)N)cc2)c1C` [Example 4]: 5.9%.
The same measure, in the same setting: with `Cc1cc(C)cc(OC(=O)c2ccc(NC(=N)N)cc2)c1` [Example 5] the figure was 46.2%; with `CCc1cccc(OC(=O)c2ccc(NC(=N)N)cc2)c1` [Example 6], 39.6%; with `COc1ccccc1OC(=O)c1ccc(NC(=N)N)cc1` [Example 7], 23.1%.
For the compound `COc1cccc(OC(=O)c2ccc(NC(=N)N)cc2)c1` [Example 8], the IC50 was 100 µM and 100 µM produced 50.9% inhibition.
In turn, `COc1ccc(OC(=O)c2ccc(NC(=N)N)cc2)cc1` [Example 9] had an inhibition at 100 µM of 44.4%.
`COc1cc(OC)cc(OC(=O)c2ccc(NC(=N)N)cc2)c1` [Example 10]: the IC50 turned out to be 40 µM.
Take `CCS(=O)(=O)Oc1cc(COC)cc(OC(=O)c2ccc(NC(=N)N)cc2)c1` [Example 11]: the IC50 was 60 µM and testing at 100 µM gave an inhibition of 66%.
Turning to `COCc1cc(O)cc(OC(=O)c2ccc(NC(=N)N)cc2)c1` [Example 12], the IC50 was above 200 µM and the inhibition at 100 µM was 14%.
In the case of `COCc1cc(OC(=O)c2ccc(NC(=N)N)cc2)cc(OC(=O)c2ccc(NC(=N)N)cc2)c1` [Example 13], the IC50 came out at 9.1 µM and the inhibition at 100 µM came out at 89%.
For the compound `COC(=O)c1cccc(OC(=O)c2ccc(NC(=N)N)cc2)c1Cl` [Example 14], the IC50 is 4 µM and the inhibition at 100 µM came out at 90.7%.
The corresponding values for `COC(=O)c1ccc(OC(=O)c2ccc(NC(=N)N)cc2)c(Cl)c1` [Example 15] are 98 µM and 55.6%.
In turn, `COC(=O)c1ccc(OC(=O)c2ccc(NC(=N)N)cc2)cc1Cl` [Example 16] gave an inhibition at 100 µM of 42%.
As for `COC(=O)c1ccc(Cl)cc1OC(=O)c1ccc(NC(=N)N)cc1` [Example 17], the IC50 was 5.8 µM and the inhibition at 100 µM is 92.2%.
Turning to `COC(=O)c1cc(Cl)cc(OC(=O)c2ccc(NC(=N)N)cc2)c1` [Example 18], the half-inhibitory concentration (IC50) amounted to 1.8 µM.
For `CC(C)OC(=O)c1cc(OC(=O)c2ccc(NC(=N)N)cc2)cc(C(=O)OC(C)C)c1` [Example 19], the inhibition at 100 µM was determined as 5.2%.
As to `CC(C)OC(=O)c1ccc(Cl)cc1OC(=O)c1ccc(NC(=N)N)cc1` [Example 20], the IC50 amounted to 14 µM.
With `CC(C)OC(=O)c1cccc(OC(=O)c2ccc(NC(=N)N)cc2)c1Cl` [Example 21], the IC50 was 2 µM.
On the same count and under the same terms, the same measure for `CCC(C)OC(=O)c1cccc(OC(=O)c2ccc(NC(=N)N)cc2)c1Cl` (stereo not drawn) [Example 22]: 2.6 µM.
For `COC(=O)Cc1cccc(OC(=O)c2ccc(NC(=N)N)cc2)c1` [Example 23], the inhibition at 100 µM turned out to be 15.6%.
As to `COC(=O)Cc1cccc(OC(=O)c2ccc(NC(=N)N)cc2)c1Cl` [Example 24], the IC50 was 50 µM.
`COC(=O)Cc1ccc(OC(=O)c2ccc(NC(=N)N)cc2)c(Cl)c1` [Example 25] had an inhibition at 100 µM of 40%.
`COC(=O)Cc1ccc(OC(=O)c2ccc(NC(=N)N)cc2)cc1Cl` [Example 26] gave an inhibition at 100 µM of 13.3%.
Same read-out and setting: the same measure for `COC(=O)C=Cc1ccc(OC(=O)c2ccc(NC(=N)N)cc2)cc1` [Example 27]: 31%.
As for `N=C(N)Nc1ccc(C(=O)Oc2ccccc2F)cc1` [Example 28], the concentration for half-maximal inhibition (IC50) came out at 40 µM and 100 µM produced 76.3% inhibition.
In the case of `N=C(N)Nc1ccc(C(=O)Oc2cccc(F)c2)cc1` [Example 29], the concentration for half-maximal inhibition (IC50) was determined as 21 µM and testing at 100 µM gave an inhibition of 81.1%.
`N=C(N)Nc1ccc(C(=O)Oc2ccc(F)cc2)cc1` [Example 30]: the inhibition at 100 µM worked out at 10.7%.
Turning to `N=C(N)Nc1ccc(C(=O)Oc2c(F)cccc2F)cc1` [Example 31], the IC50 came to 3.7 µM.
On the same count and under the same terms, the same measure for `N=C(N)Nc1ccc(C(=O)Oc2cccc(F)c2F)cc1` [Example 32]: 3.7 µM.
With `N=C(N)Nc1ccc(C(=O)Oc2c(F)c(F)c(F)c(F)c2F)cc1` [Example 33], the IC50 came out at 5.8 µM and at 100 µM the inhibition was 92.1%.
In the case of `N=C(N)Nc1ccc(C(=O)Oc2ccccc2Cl)cc1` [Example 34], the IC50 was 27 µM and at 100 µM the inhibition was 76.8%.
Turning to `N=C(N)Nc1ccc(C(=O)Oc2cccc(Cl)c2)cc1` [Example 35], the IC50 amounted to 8 µM and at 100 µM the inhibition was 87.6%.
Consider `N=C(N)Nc1ccc(C(=O)Oc2ccc(Cl)cc2)cc1` [Example 36], for which, under “at 50 μg/ml (footnote 2), read-out: Inhibitory Effect on Elastase, Inhibition %”, the inhibition at 50 µg/mL came out at 14.9%.
For the compound `N=C(N)Nc1ccc(C(=O)Oc2c(Cl)cccc2Cl)cc1` [Example 38], the IC50 is 2 µM and at 100 µM the inhibition was 89.9%.
The corresponding values for `COc1cc(Cl)cc(OC(=O)c2ccc(NC(=N)N)cc2)c1` [Example 39] are 2.4 µM and 91.1%.
On to `COc1cc(OC(=O)c2ccc(NC(=N)N)cc2)ccc1Cl` [Example 40], for which the inhibition at 100 µM came out at 39%.
In the case of `COc1ccc(Cl)c(OC(=O)c2ccc(NC(=N)N)cc2)c1` [Example 41], the half-inhibitory concentration (IC50) came out at 13 µM.
Turning to `N=C(N)Nc1ccc(C(=O)Oc2ccccc2Br)cc1` [Example 42], the IC50 stood at 16 µM and the inhibition at 100 µM turned out to be 82.1%.
With `N=C(N)Nc1ccc(C(=O)Oc2cccc(Br)c2)cc1` [Example 43], the IC50 stood at 6 µM and 100 µM produced 91.7% inhibition.
In the case of `N=C(N)Nc1ccc(C(=O)Oc2ccc(I)cc2)cc1` [Example 44], 100 µM produced 11.2% inhibition.
Turning to `N=C(N)Nc1ccc(C(=O)Oc2ccccc2C(F)(F)F)cc1` [Example 45], the IC50 is 23 µM and the inhibition at 100 µM was 72.4%.
As for `N=C(N)Nc1ccc(C(=O)Oc2cccc(C(F)(F)F)c2)cc1` [Example 46], the IC50 was 13 µM and the inhibition at 100 µM is 71.4%.
`N=C(N)Nc1ccc(C(=O)Oc2cc(C(F)(F)F)cc(C(F)(F)F)c2)cc1` [Example 47]: the IC50 came out at 3.2 µM.
`CC(=O)c1cccc(OC(=O)c2ccc(NC(=N)N)cc2)c1` [Example 48] had an inhibition at 100 µM of 4.1%.
Turning to `COc1ccc(C(C)=O)c(OC(=O)c2ccc(NC(=N)N)cc2)c1` [Example 49], the IC50 was 40 µM.
The same measure, in the same setting: the same measure for `CCCOc1ccc(C(C)=O)c(OC(=O)c2ccc(NC(=N)N)cc2)c1` [Example 50]: 54 µM; for `CC(=O)c1ccc(Cl)cc1OC(=O)c1ccc(NC(=N)N)cc1` [Example 51]: 1.8 µM.
Still for that read-out and setting: with `CCC(=O)c1ccc(Cl)cc1OC(=O)c1ccc(NC(=N)N)cc1` [Example 52] the figure was 1.6 µM; with `CC(C)C(=O)c1ccc(Cl)cc1OC(=O)c1ccc(NC(=N)N)cc1` [Example 53], 6.5 µM.
Same read-out and setting: the same measure for `N=C(N)Nc1ccc(C(=O)Oc2cccc(C(=O)c3ccccc3)c2)cc1` [Example 54]: 92 µM.
In the case of `N=C(N)Nc1ccc(C(=O)Oc2ccc(C(=O)c3ccccc3)cc2)cc1` [Example 55], the inhibition at 100 µM came to 33.3%.
For the compound `N=C(N)Nc1ccc(C(=O)Oc2ccc(C(=O)c3ccccc3)cc2Cl)cc1` [Example 56], the IC50 amounted to 48 µM and the inhibition at 100 µM amounted to 57.1%.
As for `N=C(N)Nc1ccc(C(=O)Oc2ccc(C(=O)c3ccccc3)c(Cl)c2Cl)cc1` [Example 57], testing at 100 µM gave an inhibition of 50.5%.
In the case of `N=C(N)Nc1ccc(C(=O)Oc2cc(Cl)ccc2C(=O)CC2CCCC2)cc1` [Example 58], the IC50 amounted to 1.9 µM.
On to `CC(=O)Oc1cccc(OC(=O)c2ccc(NC(=N)N)cc2)c1` [Example 59], for which at 100 µM the inhibition was 25.7%.
The same measure, in the same setting: with `CC(=O)Oc1ccc(OC(=O)c2ccc(NC(=N)N)cc2)cc1` [Example 60] the figure was 27.8%.
Take `CC(=O)Oc1cc(Cl)cc(OC(=O)c2ccc(NC(=N)N)cc2)c1` [Example 61]: the 50% inhibitory concentration (IC50) came out at 0.48 µM.
Still for that read-out and setting: the same measure for `CCC(=O)Oc1cc(Cl)cc(OC(=O)c2ccc(NC(=N)N)cc2)c1` [Example 62]: 0.38 µM.
Take `N=C(N)Nc1ccc(C(=O)Oc2cccc(OC(=O)c3ccccc3)c2)cc1` [Example 63]: the IC50 worked out at 11 µM and 100 µM produced 78.3% inhibition.
On to `N=C(N)Nc1ccc(C(=O)Oc2cccc(OC(=O)c3ccc(NC(=N)N)cc3)c2)cc1` [Example 64], for which the IC50 worked out at 15 µM.
For `N=C(N)Nc1ccc(C(=O)Oc2cc(OC(=O)c3ccc(NC(=N)N)cc3)cc(OC(=O)c3ccc(NC(=N)N)cc3)c2)cc1` [Example 65], the inhibition at 100 µM stood at 38%.
Turning to `CC(=O)c1cc(OC(=O)c2ccc(NC(=N)N)cc2)cc(OC(=O)c2ccc(NC(=N)N)cc2)c1` [Example 66], the IC50 worked out at 72 µM.
On the same count and under the same terms, with `COC(=O)c1cc(OC(=O)c2ccc(NC(=N)N)cc2)cc(OC(=O)c2ccc(NC(=N)N)cc2)c1` [Example 67] the figure was 70 µM; with `N=C(N)Nc1ccc(C(=O)Oc2cc(Cl)cc(OC(=O)c3ccc(NC(=N)N)cc3)c2)cc1` [Example 68], 0.6 µM; with `COc1cc(OC(=O)c2ccc(NC(=N)N)cc2)cc(OC(=O)c2ccc(NC(=N)N)cc2)c1` [Example 69], 1.6 µM.
